By half-life is commonly meant the time needed for the level to fall by half in the phase considered. Read a high half-life as slow decline.

Residues, ends and D or L forms follow the SMILES beside them.

One data set has as its system Plasma. The data set can be described thus: (§1) Half life in human plasma. In kind it is ADME, cell-free.
Data set [1] in a line: as §1. In kind it is ADME, cell-free.

As to `COC(=O)[C@H](Cc1ccc(OC(C)=O)c(OC(C)=O)c1)NC(=O)N[C@@H](Cc1ccc(OC(C)=O)c(OC(C)=O)c1)C(=O)OC`, the t1/2 in the data set with Plasma was 1.698 h.
For the compound `COC(=O)[C@H](Cc1ccc(OC(C)=O)c(OC(C)=O)c1)NC(=O)CCCC(=O)N[C@@H](Cc1ccc(OC(C)=O)c(OC(C)=O)c1)C(=O)OC`, the t1/2 in the data set with Plasma was found to be 1.05 h.
The compound `CCOC(=O)CNC(=O)OCN(c1ccc([N+](=O)[O-])cc1Oc1ccccc1)S(C)(=O)=O` yielded a half-life in data set [1] of 15.9 h.
With `CC(C)(C)C(=O)OCN(c1ccc([N+](=O)[O-])cc1Oc1ccccc1)S(C)(=O)=O`, in data set [1], the half-life was determined as 1.7 h.
`N[C@@H](Cc1ccc(O)c(O)c1)C(=O)OCCCCO` showed a half-life in data set [1] of 1.75 h.
Same read-out and setting: under `CCCCCCCCCCCCOC(=O)[C@H](Cc1ccccc1)NC(=O)CN.Cl` stands 1.87 h; under `C[C@H](NC(=O)[C@H](N)CCC(=O)OCc1ccc(F)cc1)C(=O)O`, 2 h.
Still for that read-out and setting: under `CC(C)C[C@H]1NC(=O)[C@H](Cc2ccccc2)NC(=O)CNC(=O)[C@@H](C)NC(=O)[C@H](Cc2ccc(O)cc2)NC(=O)OCOC1=O` stands 2.07 h; under `CCCCC(=O)OCOC(=O)Cc1c(C)n(C(=O)c2ccc(Cl)cc2)c2ccc(OC)cc12`, 2.07 h.
For `C[C@]12CCC(=O)C=C1CC[C@@H]1[C@@H]2[C@@H](O)C[C@@]2(C)[C@H]1CC[C@]2(O)C(=O)OCCl`, in data set [1], the half-life turned out to be 2.2 h.
Compound `C[C@H](NC(=O)[C@H](N)CCC(=O)OCc1ccccc1)C(=O)O` came in with a half-life in data set [1] of 2.63 h.
Consider `CCOC(=O)CN(COC(=O)Cc1ccccc1Nc1c(Cl)cccc1Cl)C(=O)c1ccccc1`, for which the half-life in data set [1] was found to be 2.7 h.
`CN(CC(=O)O)C(=O)[C@@H](N)CC(=O)OCc1ccccc1`: in data set [1], the half-life is 3 h.
In data set [1], `C[C@H](NC(=O)[C@H](N)CC(=O)OCc1ccccc1)C(=O)O` gave a half-life of 3.52 h.
The same measure, in the same setting: under `CC(C)OC(=O)[C@@H](N)Cc1ccc(O)c(O)c1` stands 3.97 h; under `Cc1cn([C@H]2C=C[C@@H](COC(=O)CN3CCN(c4cc5c(cc4F)c(=O)c(C(=O)O)cn5C4CC4)CC3)O2)c(=O)[nH]c1=O`, 4 h.
The same measure, in the same setting: under `Cc1cc(C)nc(N(COC(=O)C(C)(C)C)S(=O)(=O)c2ccc(N)cc2)n1` stands 4.07 h; under `C[C@H](NC(=O)[C@H](N)CC(=O)OCc1ccc(F)cc1)C(=O)O`, 4.33 h; under `CCOC(=O)[C@H]1O[C@@H](Oc2cc3oc(-c4ccc(O)cc4)cc(=O)c3c(O)c2O)[C@H](O)[C@@H](O)[C@@H]1O`, 4.55 h.
Take `CCN(CC)CC(=O)N(COC(=O)C(C)(C)C)c1c(C)cccc1C`: the half-life in data set [1] stood at 4.67 h.
In the case of `COC(=O)[C@@H](C)c1ccc2cc(OC)ccc2c1`, the half-life in data set [1] amounted to 5.27 h.
Still for that read-out and setting: with `CCC(=O)O[C@]1(C(=O)OCCl)CC[C@H]2[C@@H]3CCC4=CC(=O)CC[C@]4(C)[C@H]3[C@@H](O)C[C@@]21C` the figure was 5.3 h; with `CC(C)C[C@H](NC(=O)[C@H](Cc1ccccc1)NC(=O)CNC(=O)CN1C(=O)[C@H](Cc2ccc(O)cc2)NC12CCCC2)C(=O)O`, 5.57 h.
In turn, `CCCC(CCC)C(=O)OCN(C)C(=O)c1ccccc1` returned a half-life in data set [1] of 6.4 h.
The same measure, in the same setting: under `CC(C)(C)C(=O)Oc1ccc2c3c1O[C@H]1C(=O)CC[C@@]4(O)[C@@H](C2)N(CC2CC2)CC[C@]314` stands 9.37 h; under `CC(C)C[C@H](NC(=O)[C@H](Cc1ccccc1)NC(=O)CNC(=O)CN1C(=O)[C@H](Cc2ccc(O)cc2)NC12CCCCC2)C(=O)O`, 12.2 h.
`Cc1ncc([N+](=O)[O-])n1CCOC(=O)c1ccccc1C(=O)OCCn1c([N+](=O)[O-])cnc1C`: the half-life in data set [1] is 12.4 h.
Take `COC(=O)O[C@]1(C(=O)OCCl)CC[C@H]2[C@@H]3CCC4=CC(=O)CC[C@]4(C)[C@H]3[C@@H](O)C[C@@]21C`: the half-life in data set [1] came out at 16 h.
On the same count and under the same terms, under `CC(C)C[C@H](NC(=O)[C@H](Cc1ccccc1)NC(=O)CNC(=O)CN1C(=O)[C@H](Cc2ccc(O)cc2)NC12CCC(C)CC2)C(=O)O` (some centres undefined) stands 18.8 h; under `CCCC(CCC)C(=O)OCN(CC(=O)OCC)C(=O)c1ccccc1`, 22 h; under `CSCOC(=O)[C@@]1(O)CC[C@H]2[C@@H]3CCC4=CC(=O)C=C[C@]4(C)[C@H]3[C@@H](O)C[C@@]21C`, 35 h.
The same measure, in the same setting: with `CSCOC(=O)[C@@]1(O)CC[C@H]2[C@@H]3CCC4=CC(=O)CC[C@]4(C)[C@H]3[C@@H](O)C[C@@]21C` the figure was 38 h.
Regarding `CCC(CC)C(=O)Oc1ccc2c3c1O[C@H]1C(=O)CC[C@@]4(O)[C@@H](C2)N(CC2CC2)CC[C@]314`, in data set [1], the half-life was determined as 44.7 h.
For `CCOC(=O)CN(C)C(=O)OCN(c1ccc([N+](=O)[O-])cc1Oc1ccccc1)S(C)(=O)=O`, the half-life in data set [1] came to 49.2 h.
In data set [1], `COc1ccc2c(c1)c(CC(=O)NCCOCCOCCO)c(C)n2C(=O)c1ccc(Cl)cc1` gave a half-life of 74 h.
With `CC(C)(C)OC(=O)Oc1ccc2c3c1O[C@H]1C(=O)CC[C@@]4(O)[C@@H](C2)N(CC2CC2)CC[C@]314`, the half-life in data set [1] was above 24 h.
The compound `CCN(CC)C(=O)COC(=O)[C@H](C)c1ccc(CC(C)C)cc1` showed a half-life in data set [1] of 0.0167 h.
`C[C@@H](C(=O)OCC(=O)N(C)C)c1ccc(-c2ccccc2)c(F)c1`: the half-life in data set [1] was found to be 0.0183 h.
As to `CCN(CC)C(=O)COC(=O)[C@@H](C)c1ccc(CC(C)C)cc1`, in data set [1], the half-life came to 0.0233 h.
For `CC(C)Cc1ccc([C@@H](C)C(=O)OCC(=O)N(C)C)cc1`, the half-life in data set [1] came to 0.025 h.
Consider `CCN(CC)C(=O)COC(=O)[C@H](C)c1ccc(-c2ccccc2)c(F)c1`, for which the half-life in data set [1] was determined as 0.025 h.
Same read-out and setting: under `CCN(CC)C(=O)COC(=O)[C@@H](C)c1ccc(-c2ccccc2)c(F)c1` stands 0.0433 h.
In data set [1], `CC1(C)O[C@@H]2C[C@H]3[C@@H]4C[C@H](F)C5=CC(=O)C=C[C@]5(C)[C@@]4(F)[C@@H](O)C[C@]3(C)[C@]2(S[C@H]2CCOC2=O)O1` gave a half-life of 0.0667 h.
In turn, `CCC[C@@H]1O[C@@H]2C[C@H]3[C@@H]4C[C@H](F)C5=CC(=O)C=C[C@]5(C)[C@@]4(F)[C@@H](O)C[C@]3(C)[C@]2(S[C@H]2CCOC2=O)O1` showed a half-life in data set [1] of 0.0667 h.
With `CCC[C@@H]1O[C@@H]2C[C@H]3[C@@H]4C[C@H](F)C5=CC(=O)CC[C@]5(C)[C@@]4(F)[C@@H](O)C[C@]3(C)[C@]2(S[C@@H]2CCOC2=O)O1`, the half-life in data set [1] was 0.0833 h.
The compound `Cc1nccn1CCOC(=O)[C@H](C)c1ccc(CC(C)C)cc1` came in with a half-life in data set [1] of 0.0867 h.
In turn, `CC(C)Cc1ccc([C@H](C)C(=O)OCC(=O)N(C)C)cc1` registered a half-life in data set [1] of 0.117 h.
For `C[C@H](C(=O)OCC(=O)N(C)C)c1ccc(-c2ccccc2)c(F)c1`, in data set [1], the half-life came out at 0.183 h.
Turning to `C[C@@H](C(=O)OCCn1ccnc1)c1ccc(-c2ccccc2)c(F)c1`, the half-life in data set [1] amounted to 0.3 h.
In data set [1], `CC(C)Cc1ccc([C@@H](C)C(=O)OCCn2ccnc2)cc1` gave a half-life of 0.317 h.
In the case of `Cc1nccn1CCOC(=O)[C@H](C)c1ccc(-c2ccccc2)c(F)c1`, the half-life in data set [1] amounted to 0.633 h.
In data set [1], `Cc1nccn1CCOC(=O)[C@@H](C)c1ccc(CC(C)C)cc1` returned a half-life of 2.25 h.
On to `Cc1nccn1CCOC(=O)[C@@H](C)c1ccc(-c2ccccc2)c(F)c1`, for which the half-life in data set [1] is 5.92 h.
In turn, `C[C@H](C(=O)OCCn1ccnc1)c1ccc(-c2ccccc2)c(F)c1` registered a half-life in data set [1] of 7.42 h.
In turn, `CC(C)Cc1ccc([C@H](C)C(=O)OCCn2ccnc2)cc1` came in with a half-life in data set [1] of 16 h.
Consider `CCOC(=O)[C@H](C)c1ccc(CC(C)C)cc1`, for which the half-life in data set [1] came out at 93 h.
Compound `CCOC(=O)[C@@H](C)c1ccc(CC(C)C)cc1` came in with a half-life in data set [1] of 265 h.
In turn, `Cc1ncc([N+](=O)[O-])n1CCOC(=O)CN1CCC(c2ccccc2)CC1` came in with a half-life in data set [1] of 2.3 h.
In data set [1], `COC(=O)[C@H](Cc1ccc(OC(C)=O)c(OC(C)=O)c1)NC(=O)CCCC[C@@H]1CCSS1` showed a half-life of 0.88 h.
Consider `CC(=O)Oc1ccc(CCNC(=O)CCCC[C@@H]2CCSS2)cc1OC(C)=O`, for which, in data set [1], the half-life turned out to be 0.172 h.
Turning to `COC(=O)[C@H](Cc1ccc(OC(C)=O)c(OC(C)=O)c1)NC(=O)CCC(=O)N[C@@H](Cc1ccc(OC(C)=O)c(OC(C)=O)c1)C(=O)OC`, in the data set on Plasma, the t1/2 amounted to 0.232 h.
Still for that read-out and setting: with `COC(=O)[C@H](Cc1ccc(OC(C)=O)c(OC(C)=O)c1)NC(=O)CCCCC(=O)N[C@@H](Cc1ccc(OC(C)=O)c(OC(C)=O)c1)C(=O)OC` the figure was 0.13 h.
Compound `CC(C)C[C@H]1NC(=O)[C@H](Cc2ccccc2)NC(=O)CNC(=O)[C@@H](C)NC(=O)[C@H](Cc2ccc(O)cc2)NC(=O)/C=C\c2ccccc2OCOC1=O` gave a half-life in data set [1] of 4.4 h.
`O=C(CCCC[C@@H]1CCSS1)NCCc1ccc(O)c(O)c1` returned a half-life in data set [1] of 1.35 h.
As to `COC(=O)[C@H](Cc1ccc(O)c(O)c1)NC(=O)CCCC[C@@H]1CCSS1`, in data set [1], the half-life came to 1.63 h.
As to `NCC(=O)N[C@@H](Cc1ccccc1)C(=O)O` (H-Gly-Phe-OH), in data set [1], the half-life stood at 1.19 h.
As for `COC(=O)[C@H](Cc1ccccc1)NC(=O)CN.Cl` (H-Gly-Phe-OMe), the half-life in data set [1] was 0.167 h.
Turning to `CC(C)[C@H](N)C(=O)OCCOCn1cnc2c(=O)[nH]c(N)nc21` (stereo in doubt; 160) [VALACYCLOVIR], in data set [1], the half-life is 5.2 h.
On to `CC(C)[C@H](N)C(=O)OCCOCn1cnc2c(=O)[nH]c(N)nc21` (stereo in doubt; 167) [VALACYCLOVIR], for which the t1/2 with Plasma amounted to 7.13 h.
`CC(C)C[C@@H](NC(=O)[C@H](Cc1ccccc1)NC(=O)CNC(=O)[C@@H](C)NC(=O)[C@@H](N)Cc1ccc(O)cc1)C(=O)O` [DADLE] returned a half-life in data set [1] above 24 h.
`O=C(CCCCCCCCC(=O)Oc1ccc2c3c1O[C@H]1[C@@H](O)CC[C@@]4(O)[C@@H](C2)N(CC2CCC2)CC[C@]314)Oc1ccc2c3c1O[C@H]1[C@@H](O)CC[C@@]4(O)[C@@H](C2)N(CC2CCC2)CC[C@]314` [DINALBUPHINE SEBACATE] yielded a half-life in data set [1] of 0.09 h.
`CCOC(=O)[C@@H](N)Cc1ccc(O)c(O)c1` [ETILEVODOPA] came in with a half-life in data set [1] of 1.67 h.
The same measure, in the same setting: under `COc1ccccc1OC(=O)c1ccccc1Nc1cccc(C)c1C` [MEFENAMIC ACID GUAIACOL ESTER] stands 15.2 h.
With `CC(=O)N(c1onc(C)c1C)S(=O)(=O)c1ccc(N)cc1` [SULFISOXAZOLE ACETYL], in data set [1], the half-life turned out to be 0.005 h.

The values above are taken from ChEMBL document CHEMBL1821652, “QSAR models for predicting enzymatic hydrolysis of new chemical entities in 'soft-drug' design” (Bioorg Med Chem, 2009).
